Where a name gives a salt, the structure may show the parent alone.
What follows are molecules tested on Acinetobacter baumannii ATCC17961 (assay: Antimicrobial susceptibility testing: 90% growth inhibitory concentration (IC90) determination). Settings: Acinetobacter baumannii, ATCC17961, 16 h, 90% growth inhibitory concentration, Acinetobacter baumannii ATCC17961, Iso-Sensitest broth, OD 600 nm over 16 h; read-out: ATCC 17961 IC90.
Assay type: cell-based
Procedure, shortened: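 Growth inhibition derived in log phase from OD600 kinetics (every 20 minutes, 16h, 35±2° C) of ATCC17961 in Iso-Sensitest medium, inoculum ~5×10^5 CFU/ml. Compounds tested as twofold series, 10 points (e.g. 50 to 0.097 μM final); IC90 and IC50 reported.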

Q: Which IC90 does the source give for `COCCn1cc(-c2ccc(-c3cnc(C(=O)Nc4ccc(C(=O)N5CCN(C(=O)CC6(O)CC[N+](C)(C)CC6)CC5)c(Cl)c4)n3C)c(F)c2F)c(C)n1` [Example D17, N-[3-chloro-4-[4-[2-(4-hydroxy-1,1-dimethyl-piperidin-1-ium-4-yl)acetyl]piperazine-1-carbonyl]phenyl]-5-[2,3-difluoro-4-[1-(2-methoxyethyl)-3-methyl-pyrazol-4-yl]phenyl]-1-methyl-imidazole-2-carboxamide; formate] here?
A: 260 nM

Q: With `COCCn1ncc(-c2ccc(-c3cnc(C(=O)Nc4ccc(C(=O)N5CCN(C(=O)C6(N)CC[N+](C)(C)CC6)CC5)c(Cl)c4)n3C)c(F)c2F)c1C` [Example D20, N-[4-[4-(4-amino-1,1-dimethyl-piperidin-1-ium-4-carbonyl)piperazine-1-carbonyl]-3-chloro-phenyl]-5-[2,3-difluoro-4-[1-(2-methoxyethyl)-5-methyl-pyrazol-4-yl]phenyl]-1-methyl-imidazole-2-carboxamide; formate] as the molecule, how does the IC90 read?
A: 64 nM

Q: With `Cc1n[nH]cc1-c1ccc(-c2cnc(C(=O)Nc3ccc(C(=O)N4CCC(CN5CC[N+](C)(C)CC5=O)CC4)c(Cl)c3)n2C)c(F)c1F` [Example D21, N-[3-chloro-4-[4-[(4,4-dimethyl-2-oxo-piperazin-4-ium-1-yl)methyl]piperidine-1-carbonyl]phenyl]-5-[2,3-difluoro-4-(3-methyl-1H-pyrazol-4-yl)phenyl]-1-methyl-imidazole-2-carboxamide; formate] as the molecule, how does the IC90 read?
A: 200 nM

Q: With `COCCn1cc(-c2ccc(-c3cnc(C(=O)Nc4ccc(C(=O)N5CCC(NC(=O)[C@@H]6C[C@@H](O)CN6)CC5)c(Cl)c4)n3C)c(F)c2F)c(C)n1` [Example D23, N-[3-chloro-4-[4-[[(2S,4R)-4-hydroxypyrrolidine-2-carbonyl]amino]piperidine-1-carbonyl]phenyl]-5-[2,3-difluoro-4-[1-(2-methoxyethyl)-3-methyl-pyrazol-4-yl]phenyl]-1-methyl-imidazole-2-carboxamide; formic acid] as the molecule, how does the IC90 read?
A: 680 nM

Q: Which IC90 does the source give for `COCCn1ncc(-c2ccc(-c3cnc(C(=O)Nc4ccc(C(=O)N5CCN(C(=O)C6(O)CCNCC6)CC5)c(Cl)c4)n3C)c(F)c2F)c1C` [Example D24, N-[3-chloro-4-[4-(4-hydroxypiperidine-4-carbonyl)piperazine-1-carbonyl]phenyl]-5-[2,3-difluoro-4-[1-(2-methoxyethyl)-5-methyl-pyrazol-4-yl]phenyl]-1-methyl-imidazole-2-carboxamide; formic acid] here?
A: 73 nM

Q: Which IC90 does the source give for `COCCn1ncc(-c2ccc(-c3cnc(C(=O)Nc4ccc(C(=O)N5CCN(C(=O)C6CCNCC6O)CC5)c(Cl)c4)n3C)c(F)c2F)c1C` (stereo not shown) [Example D25, N-[3-chloro-4-[4-(3-hydroxypiperidine-4-carbonyl)piperazine-1-carbonyl]phenyl]-5-[2,3-difluoro-4-[1-(2-methoxyethyl)-5-methyl-pyrazol-4-yl]phenyl]-1-methyl-imidazole-2-carboxamide; formic acid] here?
A: 51 nM

Q: Which IC90 does the source give for `COCCn1ncc(-c2ccc(-c3cnc(C(=O)Nc4ccc(C(=O)N5CCN(C(=O)[C@@H]6CCC(=O)N6)CC5)c(Cl)c4)n3C)c(F)c2F)c1C` [Example D26, N-[3-chloro-4-[4-[(2S)-5-oxopyrrolidine-2-carbonyl]piperazine-1-carbonyl]phenyl]-5-[2,3-difluoro-4-[1-(2-methoxyethyl)-5-methyl-pyrazol-4-yl]phenyl]-1-methyl-imidazole-2-carboxamide; 2,2,2-trifluoroacetic acid] here?
A: 190 nM

Q: For `COCCn1ncc(-c2ccc(-c3cnc(C(=O)Nc4ccc(C(=O)N5CCN(C(=O)C6CCNC(=O)C6)CC5)c(Cl)c4)n3C)c(F)c2F)c1C` (stereo not shown) [Example D27, N-[3-chloro-4-[4-(2-oxopiperidine-4-carbonyl)piperazine-1-carbonyl]phenyl]-5-[2,3-difluoro-4-[1-(2-methoxyethyl)-5-methyl-pyrazol-4-yl]phenyl]-1-methyl-imidazole-2-carboxamide; 2,2,2-trifluoroacetic acid], which IC90 is on record?
A: 230 nM

Q: `COCCn1ncc(-c2ccc(-c3cnc(C(=O)Nc4ccc(C(=O)N5CCN(C(=O)CN6CCCC6)CC5)c(Cl)c4)n3C)c(F)c2F)c1C` [Example D28, N-[3-chloro-4-[4-(2-pyrrolidin-1-ylacetyl)piperazine-1-carbonyl]phenyl]-5-[2,3-difluoro-4-[1-(2-methoxyethyl)-5-methyl-pyrazol-4-yl]phenyl]-1-methyl-imidazole-2-carboxamide; 2,2,2-trifluoroacetic acid] was tested. Which IC90 did it give?
A: 30 nM

Q: How did the IC90 turn out when `COCCn1ncc(-c2ccc(-c3cnc(C(=O)Nc4ccc(C(=O)N5CCN(C(=O)C67CC(N)(C6)C7)CC5)c(Cl)c4)n3C)c(F)c2F)c1C` [Example D30, N-[4-[4-(3-aminobicyclo[1.1.1]pentane-1-carbonyl)piperazine-1-carbonyl]-3-chloro-phenyl]-5-[2,3-difluoro-4-[1-(2-methoxyethyl)-5-methyl-pyrazol-4-yl]phenyl]-1-methyl-imidazole-2-carboxamide; 2,2,2-trifluoroacetic acid] was run?
A: 240 nM

Q: How did the IC90 turn out when `COCCn1cc(-c2ccc(-c3cnc(C(=O)Nc4ccc(C(=O)N5CCN(C(=O)[C@@H]6C[C@@H](O)CN6)CC5)c(Cl)c4)n3C)c(F)c2F)c(C)n1` [Example D31, N-[3-chloro-4-[4-[(2S,4R)-4-hydroxypyrrolidine-2-carbonyl]piperazine-1-carbonyl]phenyl]-5-[2,3-difluoro-4-[1-(2-methoxyethyl)-3-methyl-pyrazol-4-yl]phenyl]-1-methyl-imidazole-2-carboxamide; formic acid] was run?
A: 220 nM

Q: How did the IC90 turn out when `COCCn1ncc(-c2ccc(-c3cnc(C(=O)Nc4ccc(C(=O)N5CCN(C(=O)CN(C)C)CC5)c(Cl)c4)n3C)c(F)c2F)c1C` [Example D32, N-[3-chloro-4-[4-[2-(dimethylamino)acetyl]piperazine-1-carbonyl]phenyl]-5-[2,3-difluoro-4-[1-(2-methoxyethyl)-5-methyl-pyrazol-4-yl]phenyl]-1-methyl-imidazole-2-carboxamide; 2,2,2-trifluoroacetic acid] was run?
A: 52 nM

Q: For `COCCn1ncc(-c2ccc(-c3cnc(C(=O)Nc4ccc(C(=O)NCC5CCN(C(=O)CN(C)C)CC5)c(Cl)c4)n3C)c(F)c2F)c1C` [Example D33, N-[3-chloro-4-[[1-[2-(dimethylamino)acetyl]-4-piperidyl]methylcarbamoyl]phenyl]-5-[2,3-difluoro-4-[1-(2-methoxyethyl)-5-methyl-pyrazol-4-yl]phenyl]-1-methyl-imidazole-2-carboxamide; 2,2,2-trifluoroacetic acid], which IC90 is on record?
A: 210 nM

Q: Which IC90 does the source give for `Cc1n[nH]cc1-c1ccc(-c2cnc(C(=O)Nc3ccc(C(=O)N4CCN(C(=O)CN(C)C)CC4)c(Cl)c3)n2C)c(F)c1F` [Example D34, N-[3-chloro-4-[4-[2-(dimethylamino)acetyl]piperazine-1-carbonyl]phenyl]-5-[2,3-difluoro-4-(3-methyl-1H-pyrazol-4-yl)phenyl]-1-methyl-imidazole-2-carboxamide; formic acid] here?
A: 110 nM

Q: For `Cc1n[nH]cc1-c1ccc(-c2cnc(C(=O)Nc3ccc(C(=O)N4CCN(C(=O)C[N+](C)(C)C)CC4)c(Cl)c3)n2C)c(F)c1F` [Example D35, [2-[4-[2-chloro-4-[[5-[2,3-difluoro-4-(3-methyl-1H-pyrazol-4-yl)phenyl]-1-methyl-imidazole-2-carbonyl]amino]benzoyl]piperazin-1-yl]-2-oxo-ethyl]-trimethyl-ammonium; formate], which IC90 is on record?
A: 170 nM

Q: `Cc1n[nH]cc1-c1ccc(-c2cnc(C(=O)Nc3ccc(C(=O)N4CCN(C(=O)[C@@H]5C[C@@H](O)CN5)CC4)c(Cl)c3)n2C)c(F)c1F` [Example D36, N-[3-chloro-4-[4-[(2S,4R)-4-hydroxypyrrolidine-2-carbonyl]piperazine-1-carbonyl]phenyl]-5-[2,3-difluoro-4-(3-methyl-1H-pyrazol-4-yl)phenyl]-1-methyl-imidazole-2-carboxamide] was tested. Which IC90 did it give?
A: 88 nM

Q: With `COCCn1ncc(-c2ccc(-c3cnc(C(=O)Nc4ccc(C(=O)N5CCC(NS(=O)(=O)C6CC[N+](C)(C)CC6)CC5)c(Cl)c4)n3C)c(F)c2F)c1C` [Example D37, N-[3-chloro-4-[4-[(1,1-dimethylpiperidin-1-ium-4-yl)sulfonylamino]piperidine-1-carbonyl]phenyl]-5-[2,3-difluoro-4-[1-(2-methoxyethyl)-5-methyl-pyrazol-4-yl]phenyl]-1-methyl-imidazole-2-carboxamide; formate] as the molecule, how does the IC90 read?
A: 150 nM

Q: Which IC90 does the source give for `COCCn1nc(C)c(-c2ccc(-c3cnc(C(=O)Nc4ccc(C(=O)N[C@H]5[C@@H]6CN(C(=O)[C@@H]7C[C@@H](O)C[N+]7(C)C)C[C@@H]65)c(Cl)c4)n3C)c(F)c2F)c1C` [Example D38, N-[3-chloro-4-[[(1R,5S)-3-[(2S,4R)-4-hydroxy-1,1-dimethyl-pyrrolidin-1-ium-2-carbonyl]-3-azabicyclo[3.10]hexan-6-yl]carbamoyl]phenyl]-5-[2,3-difluoro-4-[1-(2-methoxyethyl)-3,5-dimethyl-pyrazol-4-yl]phenyl]-1-methyl-imidazole-2-carboxamide; formate] here?
A: 150 nM

Q: How did the IC90 turn out when `COCCn1ncc(-c2ccc(-c3cnc(C(=O)Nc4ccc(C(=O)N[C@H]5[C@@H]6CN(C(=O)[C@@H]7C[C@@H](O)C[N+]7(C)C)C[C@@H]65)c(Cl)c4)n3C)c(F)c2F)c1C` [Example D40, N-[3-chloro-4-[[(1S,5R)-3-[(2S,4R)-4-hydroxy-1,1-dimethyl-pyrrolidin-1-ium-2-carbonyl]-3-azabicyclo[3.10]hexan-6-yl]carbamoyl]phenyl]-5-[2,3-difluoro-4-[1-(2-methoxyethyl)-3,5-dimethyl-pyrazol-4-yl]phenyl]-1-methyl-imidazole-2-carboxamide; formate] was run?
A: 77 nM

— US12421211B2, “Heterocyclic compounds” (Hoffmann-La Roche Inc., priority 2021, dated 2025)
